Consider ten molecules from patent US8039493B2, “Biaryl sulfonamide derivatives” (Hoffmann-La Roche Inc., priority 2008, dated 2011).

A word on the pIC50: it is the negative decadic logarithm of the IC50, by convention in mol/L.

pIC50: −log10 of the molar value.

Assay [1] has as its target T1, human LXR beta (Homo sapiens, UniProt P55055).
T1 construct: human LXR beta (aa 155 to 460); made in house; host or cells: E. coli BL21 (pLysS)
T1 sequence (P55055 155-460): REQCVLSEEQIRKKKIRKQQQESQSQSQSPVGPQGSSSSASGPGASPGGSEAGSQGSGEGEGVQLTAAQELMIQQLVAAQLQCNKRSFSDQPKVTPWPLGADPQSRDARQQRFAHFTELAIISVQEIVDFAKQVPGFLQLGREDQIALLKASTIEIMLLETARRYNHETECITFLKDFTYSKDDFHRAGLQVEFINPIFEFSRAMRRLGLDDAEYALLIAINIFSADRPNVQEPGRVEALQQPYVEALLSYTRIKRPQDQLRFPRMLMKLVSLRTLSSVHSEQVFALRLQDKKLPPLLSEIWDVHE
As to the kind of experiment: Radioligand binding assay (scintillation proximity), LXR beta-LBD. The settings on record: LXR beta-LBD on SPA beads, read-out: LXRbeta Binding IC50. As to the method:
(§1) The following tests were carried out in order to determine the activity of the compounds of the present invention. […] Mammalian expression vectors were constructed to express full-length human LXR alpha and LXR beta. […] To accomplish this, the portions of the sequences encoding the LBDs were amplified from the full-length clones by PCR and then subcloned into the plasmid vectors.
(§2) Induction, expression, and purification of LBD proteins were performed in E. coli strain BL21 (pLysS) cells by standard methods (Ref: Current Protocols in Molecular Biology, Wiley Press, edited by Ausubel et al).
(§3) Radioligand Binding Assay
(§4) LXR alpha and LXR beta receptor binding were assayed in buffer consisting of 50 mM HEPES, pH 7.4, 10 mM NaCl, 5 mM MgCl2. For each 96-well reaction, 500 ng of LXRα-LBD or 700 ng of LXR beta-LBD proteins were bound to 80 μg or 40 μg SPA beads respectively, in a final volume of 50 μl by shaking. The resulting slurry was incubated for 1 h at RT and centrifuged for 2 min at 1300×g. The supernatant containing unbound protein was removed, and the semi-dry pellet containing the receptor-coated beads was re-suspended in 50 μl of buffer. Radioligand (eg. 100,000 dpm of (N-(2,2,2-trifluoroethyl)-N-[4-(2,2,2-trifluoro-1-hydroxy-1-trifluoromethylethyl)-phenyl]-benzenesulfonamide)) was added, and the reaction incubated at RT for 1 h in the presence of test compounds, and then scintillation proximity counting was performed. All binding assays were performed in 96-well plates and the amount of bound ligand was measured on a Packard TopCount using OptiPlates (Packard). Dose response curves were measured within a range of concentration from 10^−10 M to 10^−4 M.
A general note: SPA uses beads or plates that emit light when radiolabelled molecules are held near them.

In assay [2] the target is T2, human LXR alpha (Homo sapiens, UniProt Q13133).
T2 construct: human LXR alpha (aa 164 to 447); made in house; host or cells: E. coli BL21 (pLysS)
T2 sequence (Q13133 164-447): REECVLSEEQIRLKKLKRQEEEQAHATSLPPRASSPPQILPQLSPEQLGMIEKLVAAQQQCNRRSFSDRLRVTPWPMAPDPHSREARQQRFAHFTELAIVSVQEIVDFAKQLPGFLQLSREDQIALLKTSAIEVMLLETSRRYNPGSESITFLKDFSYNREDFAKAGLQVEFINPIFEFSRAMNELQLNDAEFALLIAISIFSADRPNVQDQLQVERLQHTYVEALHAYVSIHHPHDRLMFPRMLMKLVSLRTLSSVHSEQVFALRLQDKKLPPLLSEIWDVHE
As to the kind of experiment: Radioligand binding assay (scintillation proximity), LXRα-LBD. The settings on record: LXRα-LBD on SPA beads, read-out: LXRalpha Binding IC50. As to the method:
as §1, §2, §3, §4

Turning to `CS(=O)(=O)c1cccc(-c2ccc(CN(C(=O)c3ccccc3)S(=O)(=O)c3ccccc3Cl)s2)c1` [Example 6, N-Benzoyl-2-chloro-N-[5-(3-methanesulfonyl-phenyl)-thiophen-2-ylmethyl]-benzenesulfonamide], the pIC50 is 7.34 in assay [1] and 5.80 in assay [2].

For the molecule `CS(=O)(=O)c1cccc(-c2ccc(CN(Cc3ccccc3)S(=O)(=O)c3ccccc3Cl)s2)c1` [Example 4, N-Benzyl-2-chloro-N-[5-(3-methanesulfonyl-phenyl)-thiophen-2-ylmethyl]-benzenesulfonamide], the values for the pIC50 in assay [1] and in assay [2] were 6.91 and 6.16, respectively.

As to `CN(Cc1ccc(-c2cccc(S(C)(=O)=O)c2)s1)S(=O)(=O)c1ccccc1C(F)(F)F` [Example 27, N-[5-(3-Methanesulfonyl-phenyl)-thiophen-2-ylmethyl]-N-methyl-2-trifluoromethyl-benzenesulfonamide], the pIC50 is 5.58 in assay [1] and 4.53 in assay [2].

Take `CC(C)CN(Cc1cccc(-c2cccc(S(C)(=O)=O)c2)c1)S(=O)(=O)C(C)C` [Example 50, Propane-2-sulfonic acid isobutyl-(3′-methanesulfonyl-biphenyl-3-ylmethyl)-amide]: the pIC50 in assay [1] was 6.09; in assay [2], 5.64.

`CC(C)S(=O)(=O)N(Cc1cccc(-c2cccc(S(C)(=O)=O)c2)c1)CC1CCC1` [Example 51, Propane-2-sulfonic acid cyclobutylmethyl-(3′-methanesulfonyl-biphenyl-3-ylmethyl)-amide]: the pIC50 is 6.55 in assay [1] and 5.79 in assay [2].

Consider `CC(C)CN(Cc1ccc(-c2cccc(S(C)(=O)=O)c2)s1)S(=O)(=O)CC1CCCCC1` [Example 58, C-Cyclohexyl-N-isobutyl-N-[5-(3-methanesulfonyl-phenyl)-thiophen-2-ylmethyl]-methanesulfonamide], for which the pIC50 in assay [1] was 5.87; in assay [2] it was 4.50.

`CS(=O)(=O)c1cccc(-c2ccc(CN(C(=O)c3ccccc3)S(=O)(=O)c3cccc(Cl)c3)s2)c1` [Example 9, N-Benzoyl-3-chloro-N-[5-(3-methanesulfonyl-phenyl)-thiophen-2-ylmethyl]-benzenesulfonamide]: the pIC50 in assay [1] was 6.01; in assay [2], 5.67.

As for `CCCN(Cc1ccc(-c2cccc(S(C)(=O)=O)c2)s1)S(=O)(=O)c1ccccc1C(F)(F)F` [Example 29, N-[5-(3-Methanesulfonyl-phenyl)-thiophen-2-ylmethyl]-N-propyl-2-trifluoromethyl-benzenesulfonamide], the pIC50 is 6.98 in assay [1] and 5.61 in assay [2].

In the case of `CS(=O)(=O)c1cccc(-c2ccc(CN(Cc3ccccc3)S(=O)(=O)c3ccccc3C(F)(F)F)s2)c1` [Example 1, N-Benzyl-N-[5-(3-methanesulfonyl-phenyl)-thiophen-2-ylmethyl]-2-trifluoromethyl-benzenesulfonamide], the pIC50 in assay [1] is 6.78; in assay [2], 6.69.

For `COCCN(Cc1ccc(-c2cccc(S(C)(=O)=O)c2)s1)S(=O)(=O)c1ccccc1C(F)(F)F` [Example 35, N-[5-(3-Methanesulfonyl-phenyl)-thiophen-2-ylmethyl]-N-(2-methoxy-ethyl)-2-trifluoromethyl-benzenesulfonamide], the pIC50 was 6.93 in assay [1] and 6.01 in assay [2].
